Laboratory results reported in patent US10172835B2, “Anticancer agent composition” (J-Pharma Co., Ltd., priority 2014, dated 2019).

Assays:
[1] = system: freshly isolated tPTEN−/− tumor cells; assay: WST-1 cell viability of freshly isolated primary tPTEN−/− tumor cells; assay type: cell-based, murine; conditions: concentration dependent manner
Experimental: (§1) Two different assays were employed: i) In a 96-well plate format, cells (4.0±0.1×10^4 per well; 100 μL) were incubated with effectors (48 h, 37° C.; n=4 per experiment) and then WST-1 reagent (10 μL; Roche Diagnostics) added to each well of 96-well plates, incubated, and the formazan production was measured at 490 nm; and ii) cells (2.0±0.1×10^4 per well; 100 μL) were incubated with effectors (48 h, 37° C.; n=4 per experiment) and then bromodeoxyuridine reagent (10 μL/well; Roche Diagnostics) was added to each well and incubated (8 h, 37° C.). The cells were then fixed, denatured and incubated with anti-BrdU-conjugated with peroxidase (POD) antibody (100 μL/well). Colorimetric substrate (TMB: tetramethyl-benzidine; 100 μL/well) was added and BrdU incorporation quantified via optical density measurement (450 nm) which corresponds to DNA synthesis and proliferating cells.

KO99L cells [2] = assay: Cell death by flow cytometry after DAPI staining, KO99L cells; assay type: cell-based, murine; conditions: 48 h
[3] = system: KO99L-LUC cells (tPTEN−/− tumor); assay: In vivo growth of subcutaneous KO99L-LUC tumors in nude mice (volume, bioluminescence, immunohistochemistry)
Experimental: All mice in each experimental group were subcutaneous injected with 99KOL-LUC T-lymphoma cells (200 μL; 5.0±0.1×10^6) stably expressing a reporter luciferase gene. After two days post injection, mice were intraperitoneally administered COMPOUND-JP (50 mg/kg/day/5 days a week) which had been prepared by dissolving drug powder and mixing into saline (NaCl 0.9%). Body weights and tumor volumes were measured every five days. Tumor volumes were calculated according to the mathematical formula: V=(L*W^2)/2 (L:Length; W:Width). To conduct the bioluminescence imaging, mice received an intraperitoneal injection (150 μL, 30 mg/mL) of D-luciferin (Caliper Life Science) and were anesthetized via inhaled isoflurane (2.0%). Bioluminescence signals were monitored using the Photon imager (Biospace Lab) equipped with a highly sensitive cooled CCD camera; all images were collected 10 min post D-luciferin injection. Data were analyzed using total photon flux emission (photons/second) focused on the regions of interest (ROI) enveloping the tumor region.
Sections (4 μm) in paraffin blocks of dissected tumors were labeled with a primary rabbit phospho-S6RP antibody (#4858, Cell Signaling Technology). A second, anti-rabbit antibody conjugated with peroxidase (HRP) (SignalStain®, #8114, Cell Signaling Technology) was added to the sections before revelation with diaminobenzidine (DAB) as recommended by the manufacturer. For necrosis evaluation, sections were stained with hematoxylin/eosin/safran (HES). The images were analyzed and necrosis areas quantified using the ImageJ software (NIH).

Jurkat T-ALL line = assay: Cell proliferation of Jurkat human T-ALL cells; assay type: cell-based
Experimental: as §1

KO99L cells [4] = assay: Mitochondrial trans-membrane potential (TMRE staining), KO99L cells; assay type: cell-based, murine
Experimental: Mitochondrial trans-membrane potential (ψm) changes as a function of apoptotic events were measured using Tetra Methyl Rhodamine Ethyl Ester Perchlorate assay (TMRE; Molecular Probes). […] Thereafter, the cells were washed twice with PBS and then stained with DAPI (Sigma-Aldrich, 1.0 μg/mL) and examined via a MACSQuant Analyser (Miltenyi Biotech) and the data evaluated via FlowJo software.

caspase 3 = assay: Western blot of caspase 3 activation and PARP cleavage in primary tPTEN−/− tumor cells (KO#732); assay type: cell-based, murine; conditions: primary KO#732 cells; COMPOUND-JP 5.0, 10.0 μM; PI-103 10.0 μM; rapamycin 10.0 nM; 2.0-18.0 h
Experimental: (§2) Cell extracts were prepared using a cell lysis buffer (50 mM HEPES, pH 7.4, 150 mM NaCl, 20 mM EDTA, 100 mM NaF, 10 mM Na3VO4, 0.5% nonyl phenoxypolyethoxylethanol (NP40) supplemented with a cocktail of protease inhibitors. After SDS-PAGE separation and transfer to nitrocellulose immunoblotting was performed using the following antibodies against: Akt (Cell Signaling Technologies, #9272), CHOP (#2895), cleaved caspase 3 (#9664), c-Myc (#9402), eIF2a (#9721), 4EBP1 (#9644), LC3A/B (#12741), PARP (#9542), pJnk (T183/Y185) (#9251), pSer235-236-S6RP (#4856), pSer473-Akt (#9271), pSer65-4EBP1 (#9451) and S6RP (#2217); Bax (Sigma-Aldrich, B8429); PUMA (Abcam, ab54288); Bak (Millipore, 06536); ATF4 (Santa Cruz Biotechnologies, sc200), GADD34 (sc8327), Hsp60 (sc-1722), Hsp90 (sc-13119) and XBP1 (sc-7160); ATF6 (Imgenex, IMG-273).

mTOR (phospho-S6RP) = assay: Phospho-Flow staining of phospho-S6RP in primary T-ALL samples; assay type: cell-based, human; conditions: two primary T-ALL samples, 10 μM
Experimental: Cells (1.0±0.1×10^6 per well; 1 mL) were incubated with various effectors (24 h, 37° C.) and then permeabilized with Cytofix/Cytoperm buffer (100 μL, 30 min, 4° C.) and then washed with PermWash (BD Biosciences) and stained with phospho-Ser235/236-S6RP antibody (30 min, 4° C.). After an additional PermWash, cells were then stained with a secondary anti-rabbit-alexaF 488 (20 μg/mL; Life Technologies) for (30 min, 4° C.). Cells were then washed in PermWash and re-suspended in staining buffer (PBS+0.1% bovine serum albumin+1.0% paraformaldehyde) and analyzed by flow cytometry on a MacsQuant Analyser (Miltenyi Biotech).

[5] = system: Unfolded Protein Response components; assay: Western blot of ISR/UPR components, KO99L cells; assay type: cell-based, murine; conditions: 10.0 μM
Experimental: as §2

Bcl2 family members = assay: Western blot of Bcl2 family members, KO99L cells; assay type: cell-based, murine; conditions: 10.0 μM, starting at 6.0 h
Experimental: as §2

KO99-RJ cells = assay: WST-1 cell viability of COMPOUND-JP-resistant KO99-RJ cells; assay type: cell-based, murine; conditions: Mus musculus, 48 h, read-out: decrease in cell viability
Experimental: as §1

CHOP / mTOR = assay: Western blot of CHOP induction and S6RP phosphorylation in KO99-RJ cells; assay type: cell-based, murine
Experimental: as §2

[6] = system: HT-29 cell derived from human large intestine cancer; assay: Tumor growth in nude mouse inoculated subcutaneously with HT-29 cells; assay type: in vivo; conditions: compared with untreated control group
Experimental: A HT-29 cell was inoculated subcutaneously into a mouse, and the transition of the size of the tumor lump was measured with time from the day on which the tumor has grown to a certain size, when each of COM-JP and 5-FU was used alone or in combination.

Nc1cc(COc2c(Cl)cc(C[C@H](N)C(=O)O)cc2Cl)c2oc(-c3ccccc3)nc2c1 [COMPOUND-JP, O-(5-amino-2-phenylbenzoxazole-7-yl)methyl-3,5-dichloro-L-tyrosine]
cell viability in freshly isolated tPTEN−/− tumor cells [1]: influenced cell viability
decrease of COMPOUND-JP induced cell death upon EAA addition (KO99L cells [2]): 2.5 fold
decrease of mean tumor volume ([3]; 50 mg/kg/day, day 18, vs vehicle treated group, p<0.05): 45%
decrease of tumor luminescence ([3]; 50 mg/kg/day, p<0.05): 59%
necrotic response within the tumors ([3]; treated mice, untreated 4.6+/−0.5%): 10.5+/−0.5%
pS6RP staining in tumors ([3]; tumors from treated mice, 50 mg/kg/day): dramatically decreased
proliferation (Jurkat T-ALL line): alter
Mitonchondrial Outer Membrane Permeabilization (MOMP) (KO99L cells [4]; 5.0 and 10.0 μM): cause MOMP
mitochondrial depolarization (KO99L cells [4]; highest concentration tested (20.0 μM), 48 hr): 70%
caspase 3 processing and PARP cleavage (apoptosis) (caspase 3): induced caspase 3 processing and PARP cleavage
phospho-S6RP by phospho-Flow cytometry (mTOR (phospho-S6RP)): mTOR inhibitory effect
GADD34 [5]: expression
full length XBP1 [5]: gradually disappeared
p38 stress pathway ([5]; 2.0 h): strongly activated
ATF4 ([5]; 6.0 h): induction
ATF6 ([5]; 18.0 h): induction
eIF2 phosphorylation ([5]; 24 h): De-phosphorylation
protein levels of four pro-apoptotic members: Bak, Bax, PUMA and Bim (Bcl2 family members): increased protein levels
cytotoxicity at 40 µM (KO99-RJ cells): ~40%
integrated stress response (CHOP induction) (CHOP / mTOR): failed to trigger the integrated stress response
mTOR inhibition (S6RP phosphorylation) (CHOP / mTOR): failed to inhibit mTOR
increase of the tumor, single administration [6]: more significant decrease
